This is an account of results in patent publication US8480620B2, “Coatings with tunable solubility profile for drug-coated balloon” (Abbott Cardiovascular Systems Inc., priority 2009, dated 2013).

The nature of the data set: Solubility enhancement of zotarolimus with select excipient solutions. It counts as physicochemical. Conditions: Phosphate buffered saline; n = 3. The text has this:
Table 1 provides non-limiting examples of the solubility data for excipients that can be used in accordance with the disclosed subject matter:
As illustrated, in Table 1 the excipients provide for increased solubility for the cytostatic drug, zotarolimus, as compared to saline alone.

As for `CO[C@H]1C[C@@H]2CC[C@@H](C)[C@@](O)(O2)C(=O)C(=O)N2CCCC[C@H]2C(=O)O[C@H]([C@H](C)C[C@@H]2CC[C@H](n3cnnn3)[C@H](OC)C2)CC(=O)[C@H](C)/C=C(\C)[C@@H](O)[C@@H](OC)C(=O)[C@H](C)C[C@H](C)/C=C/C=C/C=C/1C` [Zotarolimus, zotarolimus], the “Zotarolimus Solubility” value amounted to 0.53 µg/mL.
